Measurements published in patent US20210284742A1, “METHODS OF TREATING OR PREVENTING MUCORMYCOSIS” (University of Maryland, Baltimore, priority 2018, published 2021).

How the values were obtained:
[1] = tested on: A549 cells infected with L. corymbifera; assay: L. corymbifera-induced damage of A549 cells (LDH assay); assay type: cell-based, human; details: 25 μM Mifepristone overnight and/or 25 μM Gefitinib 1 h, 24 h infection (FIG. 14)
[2] = tested on: A549 alveolar epithelial cells infected with R. delemar spores; assay: Measurement of host cell endocytosis of R. delemar by A549 cells (Uvitex differential fluorescence); assay type: cell-based, human; details: for endocytosis of R. delemar spores: A549 cells pretreated 1 h with 25 μM Gefitinib or 25 μg/ml Cetuximab, 3 h infection, vs vehicle or IgG1 control antibody
Method: Measurement of host cell endocytosis. 12-mm glass coverslips were seeded with A549 alveolar epithelial cells. […] For controls, host cells will be incubated with DMSO (the solvent used to reconstitute the inhibitor) or 25 μg/ml mouse IgG antibody in parallel. Host cells were then infected with 2×10^5 R. delemar spores. After incubation for 3 h, cells were fixed in 3% paraformaldehyde and stained for 1 h with 1% Uvitex, which specifically binds to chitin in the fungal cell wall. After washing with PBS, coverslips were mounted on a glass slide with a drop of ProLong Gold anti-fade reagent (Molecular Probes) and sealed. The total number of cell-associated organisms (i.e. fungi adhering to the monolayer) per high-powered field were determined by phase-contrast microscopy. The same field will be examined by epifluorescence microscopy, and the number of brightly fluorescent, uninternalized fungi were determined. The number of endocytosed organisms was calculated by subtracting the number of fluorescent fungi from the total number of visible fungi. At least 400 organisms were counted per treatment group in at least 15 different fields per coverslip. Experiments were performed in duplicate or triplicate on at least two separate days.
12-mm glass coverslips in 12 well dishes will be seeded with A549 alveolar epithelial cells. Cells were then pre-treated 1 h with inhibitors. For controls, host cells were incubated with the appropriate amount of diluent used to reconstitute the inhibitor in parallel. Host cells were then infected with 2×10^6 Rdelemar. After incubation for 3 h, cells were fixed in 3% paraformaldehyde and stained for 1 h with 1% Uvitex, which specifically binds to chitin in the fungal cell wall. After washing with PBS, coverslips were mounted on a glass slide with a drop of ProLong Gold anti-fade reagent (Molecular Probes) and sealed. The total number of cell-associated organisms (i.e., fungi adhering to the monolayer) per high-powered field was determined by phase-contrast microscopy. The same exact field was examined by epifluorescence microscopy, and the number of brightly fluorescent, uninternalized fungi will be determined. The number of endocytosed organisms is calculated by subtracting the number of fluorescent organisms from the total number of visible organisms. At least 400 organisms were counted in at least 15 different fields per coverslip. Experiments were performed in duplicate on separate days. Data will be expressed as median f interquartile range.

PGR = PGR translocation to the nucleus during R. delemar infection (confocal microscopy); assay type: cell-based, human; details: A549 cells pretreated with Gefitinib 1 h, R. delemar infection 2 h (FIG. 16)
Method: Translocation of host PGR was visualized using the Zeiss LSM Duo confocal microscopy system. 12-mm glass coverslips in 12 well dishes were seeded with A549 alveolar epithelial cells and infected with 2×10^5 R. delemar or R. oryzae that have been incubated in F12K+10% FBS at 37° C. for 2 h. After a 2 h incubation at 37° C., cells were washed with HBSS and fixed with 3% paraformaldehyde. Cells were incubated with anti-PGR (Aviva MS-196-P1, recognizes B) for 1 h or overnight in 0.1% BSA for 1 hour. Coverslips were washed and counterstained with Alexa Fluor 546-labeled goat anti-rabbit or Alexa Fluor 488-goat anti-mouse. After washing, the coverslip will be mounted on a glass slide with a drop of ProLong Gold antifade reagent (Molecular Probes) and viewed by confocal fluorescent microscopy.

[3] = tested on: A549 cells infected with C. bertholletiae; assay: C. bertholletiae-induced damage of A549 cells (LDH assay); assay type: cell-based, human; details: 25 μM Mifepristone overnight and/or 25 μM Gefitinib 1 h, 24 h infection (FIG. 14)
[4] = tested on: A549 cells infected with R. delemar; assay: R. delemar-induced A549 cell damage (Pierce LDH assay); assay type: cell-based, human
Method: Measurement of R. delemar-induced host cell damage. R. delemar-induced A549 cell damage was quantified using the Pierce LDH Assay with slight modifications to the manufacturer's protocol. Briefly, A549 cells were grown in 96-well tissue culture plates for 18-24 hours. […] For controls, host cells will be incubated with DMSO (the solvent used to reconstitute the inhibitor) or 25 μg/ml of mouse IgG antibody in parallel. After 24 hours of incubation at 37° C., 50 μl of the cell culture supernatant was collected from uninfected, infected, and fungi-only control wells and transferred to a 96 well plate to assay for LDH activity. Lysis buffer was added to all infected wells and incubated for 45 min at 37° C. After lysis, 50 μl of cell culture supernatant was transferred to a 96 well plate and used for the LDH Assay Kit per protocol. LDH release was calculated as follows: % Cytotoxicity=[Experimental release−Fungal Cells Spontaneous Control−Host Cells Spontaneous Control]/[Host Cell Maximum Control−Fungal Cells Maximum Control−Host Cells Spontaneous Control]×100. LDH is a cytosolic enzyme but will be released into the cell culture medium upon cell membrane damage. The amount of extracellular LDH is proportional to the amount of cell damage.
R. delemar-induced A549 cell damage was quantified using the Pierce LDH assay, with slight modifications to the manufacturer's protocol. Briefly, A549 cells were grown in 96-well tissue culture plates for 18 to 24 h. Cells were then pretreated for 1 h with inhibitor and infected with 1×10^6-2×10^6 germlings suspended in 150 μl F-12K plus 10% FBS. For controls, host cells were incubated with the appropriate amount of diluent used to reconstitute the in parallel. After 24 h of incubation at 37° C., 50 μl of the cell culture supernatant was collected from uninfected, infected, and fungus-only control wells and transferred to a 96-well plate to assay for LDH activity. Lysis buffer was added to all infected wells, and the mixture was incubated for 45 min at 37° C. After lysis, 50 μl of cell culture supernatant was transferred to a 96-well plate and used for the LDH assay kit per the protocol. LDH release was calculated as follows: % cytotoxicity=[(experimental release−fungal cell spontaneous control−host cell spontaneous control)/(host cell maximum control−fungal cell maximum control−host cell spontaneous control)]×100. LDH is a cytosolic enzyme but will be released into the cell culture medium upon cell membrane damage. The amount of extracellular LDH is proportional to the amount of cell damage.

R. delemar = assay: Growth / germination of R. delemar in the absence of host cells; assay type: cell-based
[5] = tested on: A549 cells infected with M. circinelloides; assay: M. circinelloides-induced damage of A549 cells (LDH assay); assay type: cell-based, human; details: 25 μM Mifepristone overnight and/or 25 μM Gefitinib 1 h, 24 h infection (FIG. 14)
[6] = tested on: other Mucormycosis-causing fungi; assay: In vitro infection with other mucormycosis-causing fungi (FIG. 23); assay type: cell-based
[7] = spore preparations pre-treated with drug prior to the infection

COc1cc2ncnc(Nc3ccc(F)c(Cl)c3)c2cc1OCCCN1CCOCC1 [Gefitinib]
L. corymbifera-induced damage [1]: significantly decreased
endocytosis of R. delemar spores [2]: significantly reduced
endocytosis of R. delemar spores ([2]; listed as Gefinitib): did not completely block
endocytosis after pre-treatment of R. delemar spore preparations [2, 7]: did not reduce
translocation of PGR from the cytosol to the nucleus (PGR): reduced
C. bertholletiae-induced damage [3]: significantly decreased
R. delemar-induced damage of A549 cells (LDH assay) ([4]; A549 cells pretreated 1 h with 25 μM Gefitinib or 25 μg/ml Cetuximab, 24 h infection, vs vehicle or IgG1 control antibody): significantly reduced
R. delemar-induced damage of alveolar epithelial cells (LDH assay) ([4]; Example 3, Mifepristone 25 / Gefitinib 25, 24 h infection, vs vehicle (FIG. 12)): significantly decreased
host cell damage after pre-treatment of R. delemar spore preparations [4, 7]: did not reduce
R. delemar mycelial growth (R. delemar): no effect
M. circinelloides-induced damage [5]: significantly decreased
in vitro infection of other Mucormycosis-causing fungi [6]: Inhibits
